From the NIST ThermoML archive (doi:10.1021/acs.jced.7b00107)
Where “and” joins values, the source holds several entries; their conditions need not be identical. Equal entries are not always repeated.

Assay: molar heat capacity at constant pressure
Details: 101.33 kPa, Small (less than 1 g) adiabatic calorimetry

Cl.NC12CC3CC(CC(C3)C1)C2 [1-aminoadamantane hydrochloride]
Details	molar heat capacity at constant pressure
5 K, Crystal 3	0.585 J/K/mol
5.01 K, Crystal 3	0.5801 J/K/mol
5.25 K, Crystal 3	0.6835 J/K/mol
5.49 K, Crystal 3	0.7946 J/K/mol
5.75 K, Crystal 3	0.916 J/K/mol
6 K, Crystal 3	1.051 J/K/mol
6.3 K, Crystal 3	1.22 J/K/mol
6.62 K, Crystal 3	1.42 J/K/mol
6.95 K, Crystal 3	1.642 J/K/mol
7.29 K, Crystal 3	1.891 J/K/mol
7.64 K, Crystal 3	2.153 J/K/mol
7.99 K, Crystal 3	2.437 J/K/mol
8.34 K, Crystal 3	2.747 J/K/mol
8.7 K, Crystal 3	3.078 J/K/mol
9.06 K, Crystal 3	3.426 J/K/mol
9.43 K, Crystal 3	3.794 J/K/mol
9.79 K, Crystal 3	4.174 J/K/mol
10 K, Crystal 3	4.396 J/K/mol
10.17 K, Crystal 3	4.569 J/K/mol
10.64 K, Crystal 3	5.116 J/K/mol
11.22 K, Crystal 3	5.781 J/K/mol
11.81 K, Crystal 3	6.479 J/K/mol
12.4 K, Crystal 3	7.208 J/K/mol
13 K, Crystal 3	7.971 J/K/mol
13.6 K, Crystal 3	8.754 J/K/mol
14.21 K, Crystal 3	9.533 J/K/mol
14.82 K, Crystal 3	10.38 J/K/mol
15 K, Crystal 3	10.64 J/K/mol
15.54 K, Crystal 3	11.36 J/K/mol
16.37 K, Crystal 3	12.56 J/K/mol
17.21 K, Crystal 3	13.72 J/K/mol
18.05 K, Crystal 3	14.85 J/K/mol
18.89 K, Crystal 3	15.98 J/K/mol
19.74 K, Crystal 3	17.1 J/K/mol
20 K, Crystal 3	17.48 J/K/mol
20.86 K, Crystal 3	18.62 J/K/mol
22.27 K, Crystal 3	20.49 J/K/mol
23.7 K, Crystal 3	22.36 J/K/mol
25 K, Crystal 3	24 J/K/mol
25.12 K, Crystal 3	24.15 J/K/mol
26.55 K, Crystal 3	25.89 J/K/mol
27.96 K, Crystal 3	27.53 J/K/mol
29.45 K, Crystal 3	29.22 J/K/mol
30 K, Crystal 3	29.84 J/K/mol
31.06 K, Crystal 3	31 J/K/mol
32.82 K, Crystal 3	32.84 J/K/mol
34.59 K, Crystal 3	34.6 J/K/mol
35 K, Crystal 3	34.98 J/K/mol
36.37 K, Crystal 3	36.26 J/K/mol
38.14 K, Crystal 3	37.9 J/K/mol
39.92 K, Crystal 3	39.49 J/K/mol
40 K, Crystal 3	39.56 J/K/mol
41.79 K, Crystal 3	41.08 J/K/mol
43.77 K, Crystal 3	42.73 J/K/mol
45 K, Crystal 3	43.74 J/K/mol
45.75 K, Crystal 3	44.38 J/K/mol
47.72 K, Crystal 3	45.9 J/K/mol
49.71 K, Crystal 3	47.41 J/K/mol
50 K, Crystal 3	47.63 J/K/mol
51.69 K, Crystal 3	48.89 J/K/mol
53.68 K, Crystal 3	50.26 J/K/mol
55.67 K, Crystal 3	51.64 J/K/mol
57.67 K, Crystal 3	52.99 J/K/mol
59.67 K, Crystal 3	54.32 J/K/mol
60 K, Crystal 3	54.53 J/K/mol
61.67 K, Crystal 3	55.65 J/K/mol
63.67 K, Crystal 3	56.94 J/K/mol
65.68 K, Crystal 3	58.17 J/K/mol
67.69 K, Crystal 3	59.45 J/K/mol
69.7 K, Crystal 3	60.69 J/K/mol
70 K, Crystal 3	60.92 J/K/mol
71.71 K, Crystal 3	62 J/K/mol
73.72 K, Crystal 3	63.24 J/K/mol
75.74 K, Crystal 3	64.48 J/K/mol
77.75 K, Crystal 3	65.74 J/K/mol
78.45 K, Crystal 3	66.2 J/K/mol
79.78 K, Crystal 3	66.97 J/K/mol
80 K, Crystal 3	67.11 J/K/mol
80.56 K, Crystal 3	67.47 J/K/mol
81.8 K, Crystal 3	68.23 J/K/mol
82.48 K, Crystal 3	68.62 J/K/mol
83.83 K, Crystal 3	69.44 J/K/mol
84.4 K, Crystal 3	69.79 J/K/mol
86.32 K, Crystal 3	71.01 J/K/mol
88.24 K, Crystal 3	72.23 J/K/mol
90 K, Crystal 3	73.32 J/K/mol
90.17 K, Crystal 3	73.44 J/K/mol
92.09 K, Crystal 3	74.67 J/K/mol
94.02 K, Crystal 3	75.9 J/K/mol
95.95 K, Crystal 3	77.18 J/K/mol
97.89 K, Crystal 3	78.44 J/K/mol
99.83 K, Crystal 3	79.74 J/K/mol
100 K, Crystal 3	79.81 J/K/mol
100.61 K, Crystal 3	80.3 J/K/mol
101.77 K, Crystal 3	81.04 J/K/mol
102.13 K, Crystal 3	81.29 J/K/mol
103.66 K, Crystal 3	82.26 J/K/mol
103.71 K, Crystal 3	82.35 J/K/mol
105.19 K, Crystal 3	83.26 J/K/mol
105.66 K, Crystal 3	83.7 J/K/mol
106.71 K, Crystal 3	84.46 J/K/mol
107.61 K, Crystal 3	85.07 J/K/mol
108.24 K, Crystal 3	85.55 J/K/mol
109.57 K, Crystal 3	86.53 J/K/mol
109.77 K, Crystal 3	86.68 J/K/mol
110 K, Crystal 3	86.83 J/K/mol
110.61 K, Crystal 3	87.3 J/K/mol
111.3 K, Crystal 3	87.82 J/K/mol
111.52 K, Crystal 3	88.04 J/K/mol
111.99 K, Crystal 3	88.23 J/K/mol
112.83 K, Crystal 3	89.22 J/K/mol
113 K, Crystal 3	89.28 J/K/mol
113.48 K, Crystal 3	89.74 J/K/mol
114.01 K, Crystal 3	90.15 J/K/mol
114.36 K, Crystal 3	90.6 J/K/mol
115.02 K, Crystal 3	91.42 J/K/mol
115.44 K, Crystal 3	92 J/K/mol
115.56 K, Crystal 3	91.67 J/K/mol
115.89 K, Crystal 3	92.64 J/K/mol
116.03 K, Crystal 3	92.78 J/K/mol
116.09 K, Crystal 3	92.4 J/K/mol
116.58 K, Crystal 3	93.36 J/K/mol
117.03 K, Crystal 3	94.87 J/K/mol
117.07 K, Crystal 3	94.53 J/K/mol
117.39 K, Crystal 3	96.19 J/K/mol
117.4 K, Crystal 3	96.04 J/K/mol
117.56 K, Crystal 3	95.93 J/K/mol
118.03 K, Crystal 3	98.29 J/K/mol
118.05 K, Crystal 3	97.56 J/K/mol
118.53 K, Crystal 3	100.2 J/K/mol
118.9 K, Crystal 3	105.3 J/K/mol
119.01 K, Crystal 3	104 J/K/mol
119.02 K, Crystal 3	105.6 J/K/mol
119.31 K, Crystal 3	108.3 J/K/mol
119.48 K, Crystal 3	110.1 J/K/mol
119.95 K, Crystal 3	112.9 J/K/mol
119.99 K, Crystal 3	111.4 J/K/mol
120 K, Crystal 2	94.01 J/K/mol
120 K, Crystal 3	94.01 J/K/mol
120.37 K, Crystal 2	108.5 J/K/mol
120.42 K, Crystal 2	108.5 J/K/mol
120.89 K, Crystal 2	104.8 J/K/mol
120.95 K, Crystal 2	106.2 J/K/mol
121.24 K, Crystal 2	112.4 J/K/mol
121.37 K, Crystal 2	108.6 J/K/mol
121.81 K, Crystal 2	125.5 J/K/mol
121.84 K, Crystal 2	120 J/K/mol
121.91 K, Crystal 2	126.5 J/K/mol
122.28 K, Crystal 2	146.1 J/K/mol
122.69 K, Crystal 2	168 J/K/mol
122.76 K, Crystal 2	187.7 J/K/mol
123.07 K, Crystal 1	165.2 J/K/mol and 227.7 J/K/mol
123.1 K, Crystal 1	96.21 J/K/mol
123.1 K, Crystal 2	96.21 J/K/mol
123.13 K, Crystal 1	176.4 J/K/mol
123.47 K, Crystal 1	148 J/K/mol
123.61 K, Crystal 1	138.3 J/K/mol
123.92 K, Crystal 1	106.3 J/K/mol
124.41 K, Crystal 1	99.7 J/K/mol
124.5 K, Crystal 1	100.8 J/K/mol
124.56 K, Crystal 1	99.57 J/K/mol
124.9 K, Crystal 1	99.18 J/K/mol
125.12 K, Crystal 1	99.65 J/K/mol
125.39 K, Crystal 1	98.8 J/K/mol
125.57 K, Crystal 1	98.89 J/K/mol
125.88 K, Crystal 1	98.68 J/K/mol
126.03 K, Crystal 1	99.11 J/K/mol
126.58 K, Crystal 1	99.15 J/K/mol
127.3 K, Crystal 1	99.61 J/K/mol
127.57 K, Crystal 1	99.64 J/K/mol
129.1 K, Crystal 1	100.5 J/K/mol
129.28 K, Crystal 1	100.6 J/K/mol
130 K, Crystal 1	101 J/K/mol
130.63 K, Crystal 1	101.5 J/K/mol
131.26 K, Crystal 1	101.8 J/K/mol
132.16 K, Crystal 1	102.5 J/K/mol
133.24 K, Crystal 1	103.2 J/K/mol
133.7 K, Crystal 1	103.5 J/K/mol
135.22 K, Crystal 1	104.5 J/K/mol
135.23 K, Crystal 1	104.6 J/K/mol
136.76 K, Crystal 1	105.6 J/K/mol
137.2 K, Crystal 1	105.9 J/K/mol
138.29 K, Crystal 1	106.7 J/K/mol
139.19 K, Crystal 1	107.3 J/K/mol
139.83 K, Crystal 1	107.7 J/K/mol
140 K, Crystal 1	107.9 J/K/mol
141.18 K, Crystal 1	108.6 J/K/mol
141.36 K, Crystal 1	108.7 J/K/mol
142.89 K, Crystal 1	109.4 J/K/mol
143.17 K, Crystal 1	109.5 J/K/mol
144.42 K, Crystal 1	109.9 J/K/mol
145.16 K, Crystal 1	110.1 J/K/mol
145.95 K, Crystal 1	110.4 J/K/mol
147.16 K, Crystal 1	110.9 J/K/mol
147.49 K, Crystal 1	111.1 J/K/mol
149.02 K, Crystal 1	111.7 J/K/mol
149.15 K, Crystal 1	111.8 J/K/mol
150 K, Crystal 1	112.2 J/K/mol
150.57 K, Crystal 1	112.4 J/K/mol
151.15 K, Crystal 1	112.7 J/K/mol
152.11 K, Crystal 1	113.3 J/K/mol
153.15 K, Crystal 1	113.8 J/K/mol
153.64 K, Crystal 1	114.2 J/K/mol
155.14 K, Crystal 1	114.9 J/K/mol
155.18 K, Crystal 1	114.9 J/K/mol
156.72 K, Crystal 1	115.7 J/K/mol
157.14 K, Crystal 1	116.1 J/K/mol
158.25 K, Crystal 1	116.7 J/K/mol
159.14 K, Crystal 1	117.2 J/K/mol
159.79 K, Crystal 1	117.6 J/K/mol
160 K, Crystal 1	117.7 J/K/mol
161.14 K, Crystal 1	118.4 J/K/mol
161.32 K, Crystal 1	118.5 J/K/mol
162.86 K, Crystal 1	119.5 J/K/mol
163.14 K, Crystal 1	119.6 J/K/mol
164.39 K, Crystal 1	120.4 J/K/mol
165.15 K, Crystal 1	120.8 J/K/mol
165.92 K, Crystal 1	121.2 J/K/mol
167.15 K, Crystal 1	122 J/K/mol
167.45 K, Crystal 1	122.3 J/K/mol
168.98 K, Crystal 1	123.2 J/K/mol
169.15 K, Crystal 1	123.3 J/K/mol
170 K, Crystal 1	123.8 J/K/mol
170.51 K, Crystal 1	124.1 J/K/mol
171.16 K, Crystal 1	124.6 J/K/mol
172.04 K, Crystal 1	125 J/K/mol
173.17 K, Crystal 1	125.8 J/K/mol
173.57 K, Crystal 1	126 J/K/mol
175.1 K, Crystal 1	127 J/K/mol
175.17 K, Crystal 1	127 J/K/mol
176.62 K, Crystal 1	127.9 J/K/mol
177.18 K, Crystal 1	128.3 J/K/mol
178.14 K, Crystal 1	128.9 J/K/mol
179.19 K, Crystal 1	129.6 J/K/mol
179.67 K, Crystal 1	130 J/K/mol
180 K, Crystal 1	130.1 J/K/mol
181.19 K, Crystal 1	130.9 J/K/mol
181.2 K, Crystal 1	130.9 J/K/mol
182.7 K, Crystal 1	131.9 J/K/mol
183.21 K, Crystal 1	132.2 J/K/mol
184.22 K, Crystal 1	132.8 J/K/mol
185.23 K, Crystal 1	133.5 J/K/mol
185.74 K, Crystal 1	133.8 J/K/mol
187.24 K, Crystal 1	134.8 J/K/mol
187.25 K, Crystal 1	134.8 J/K/mol
188.76 K, Crystal 1	135.8 J/K/mol
189.25 K, Crystal 1	136.2 J/K/mol
190 K, Crystal 1	136.6 J/K/mol
190.27 K, Crystal 1	136.9 J/K/mol
191.27 K, Crystal 1	137.4 J/K/mol
191.79 K, Crystal 1	137.9 J/K/mol
193.28 K, Crystal 1	138.8 J/K/mol
193.3 K, Crystal 1	138.9 J/K/mol
194.8 K, Crystal 1	139.9 J/K/mol
195.3 K, Crystal 1	140.1 J/K/mol
